These results are taken from US20070112043A1, “Acylated and non-acylated imidazo[2,1-b]-1,3,4,-thiadiazole-2-sulfonamides, and uses thereof” (priority 2003, published 2007).

The solubility is the concentration that dissolves in the medium under given conditions. A low value points to a poorly soluble substance.

The first series can be described thus: Solubility in water and formulations. As to conditions: TFA salts, not neutralized.
As to `CSCCC(N)C(=O)NS(=O)(=O)c1nn2cc(-c3ccccc3)nc2s1` (centres unmarked) [Compound 24], the “solubility in water or in 10% HPCD” value was “not soluble”.

With `O=C(NS(=O)(=O)c1nn2cc(-c3ccccc3)nc2s1)C1CCCN1` (centres unmarked) [Compound 26], the “solubility in water or in 10% HPCD” value is given as “not soluble”.

A short description of another series: physchem. As to conditions: water.
On to `NS(=O)(=O)c1nn2cc(-c3ccc(Oc4ccc(F)c(F)c4)cc3)nc2s1` [Compound 112], for which the solubility was less than 500 µg/mL.

On to `NS(=O)(=O)c1nn2cc(-c3ccc(Oc4ccc(Cl)c(Cl)c4)cc3)nc2s1` [Compound 113], for which the solubility is less than 500 µg/mL.

As for `NS(=O)(=O)c1nn2cc(-c3ccc(Oc4ccccc4Br)cc3)nc2s1` [Compound 114], the solubility is less than 500 µg/mL.

`NS(=O)(=O)c1nn2cc(-c3ccc(Oc4cccc(Br)c4)cc3)nc2s1` [Compound 115] came in with a solubility of less than 500 µg/mL.

In turn, `CN(C)c1cccc(Oc2ccc(-c3cn4nc(S(N)(=O)=O)sc4n3)cc2)c1` [Compound 117] showed a solubility of less than 500 µg/mL.

As to `CC(C)c1ccc(Oc2ccc(-c3cn4nc(S(N)(=O)=O)sc4n3)cc2)cc1` [Compound 118], the solubility is less than 500 µg/mL.

As to `COc1ccc(Oc2ccc(-c3cn4nc(S(N)(=O)=O)sc4n3)cc2)cc1` [Compound 119], the solubility is less than 500 µg/mL.

Molecule `NS(=O)(=O)c1nn2cc(-c3ccc(Oc4ccc([N+](=O)[O-])cc4)cc3)nc2s1` [Compound 120] registered a solubility of less than 500 µg/mL.

Take `Cc1ccc(-c2cn3nc(S(N)(=O)=O)sc3n2)cc1Cl` [Compound 122]: the solubility is less than 500 µg/mL.

For the molecule `NS(=O)(=O)c1nn2cc(-c3ccccn3)nc2s1` [Compound 123], the solubility is less than 500 µg/mL.

For `NS(=O)(=O)c1nn2cc(-c3cnccn3)nc2s1` [Compound 126], the solubility was less than 500 µg/mL.

In turn, `NS(=O)(=O)c1nn2cc(-c3cc4ccccc4oc3=O)nc2s1` [Compound 127] returned a solubility of less than 500 µg/mL.

`NS(=O)(=O)c1nn2cc(-c3ccc4c(c3)NC(=O)CO4)nc2s1` [Compound 128]: the solubility is less than 500 µg/mL.

`NS(=O)(=O)c1nn2cc(-c3cc4ccccc4o3)nc2s1` [Compound 129] returned a solubility of less than 500 µg/mL.

With `NS(=O)(=O)c1nn2cc(-c3cccs3)nc2s1` [Compound 130], the solubility was less than 500 µg/mL.

With `NS(=O)(=O)c1nn2cc(-c3ccc(-c4ccccc4)s3)nc2s1` [Compound 131], the solubility was less than 500 µg/mL.

The molecule `Br.NS(=O)(=O)c1nn2cc(-c3ccc([N+](=O)[O-])s3)nc2s1` [Compound 132] showed a solubility of less than 500 µg/mL.

Molecule `Cc1c(-c2cn3nc(S(N)(=O)=O)sc3n2)sc2ccccc12` [Compound 133] had a solubility of less than 500 µg/mL.

`NS(=O)(=O)c1nn2cc(-c3cc(-c4ccccc4)no3)nc2s1` [Compound 135] had a solubility of less than 500 µg/mL.

`Cc1onc(-c2ccccc2)c1-c1cn2nc(S(N)(=O)=O)sc2n1` [Compound 136] had a solubility of less than 500 µg/mL.

`Cc1c(-c2cn3nc(S(N)(=O)=O)sc3n2)cnn1-c1ccccc1` [Compound 137] displayed a solubility of less than 500 µg/mL.

`NS(=O)(=O)c1nn2cc(-c3nccs3)nc2s1` [Compound 138] came in with a solubility of less than 500 µg/mL.

Consider `Cc1nc(C)c(-c2cn3nc(S(N)(=O)=O)sc3n2)s1` [Compound 139], for which the solubility is less than 500 µg/mL.

In turn, `CNS(=O)(=O)c1nn2cc(-c3ccccc3)nc2s1` [Compound 140] came in with a solubility of less than 500 µg/mL.
